Measurements published in patent US10106783B2, “HCV culture systems and direct-acting antiviral sensitivity” (Hvidovre Hospital, priority 2013, dated 2018).

Columns and labels:
[1] = system: 1a(H77) 5'UTR-NS5A recombinant virus; assay: High-throughput DAA treatment assay of infected Huh7.5 cells, 1a(H77)5-5A virus; type: cell-based, hepatitis C virus; conditions: for EC50 fold-difference from J6/JFH1: 1a(H77)5-5A virus, difference in sensitivity compared to J6/JFH1; for EC50 fold-difference relative to J6/JFH1, more sensitive: 1a(H77)5-5A virus more sensitive than J6/JFH1
Procedure: (§1) Huh7.5 cells in 96-well culture plates were infected with 5′UTR-NS5A specific genotype(isolate) recombinants. For details on the 5-5A virus stocks see FIG. 3. J6/JFH1 was a first-passage stock with no mutations in the ORF. Cultures were treated with seven protease inhibitors and the NS5A inhibitor daclatasvir. Values are means of triplicates in the experiment with ±SEM.
(§2) HCV DAAs were purchased from Acme Bioscience and dissolved in dimethyl sulfoxide (Sigma). High throughput treatment assays have been previously established. Concentration-response curves, EC50 values, and 95% confidence interval were calculated in GraphPad Prism 5 as described. Cytotoxicity assays to determine the non-cytotoxic dose range of the anti-HCV drugs were performed.
(§3) Since no mutations appeared in the NS3 protease region in first-passage 5-5A recombinants, these culture viruses could be ideal models for studying the efficacy of PIs in a genotype-specific manner. We thus generated virus stocks from first-passage 1a(H77 and TN) and second-passage 3a(S52), 4a(ED43), 5a(SA13), and 6a(HK6a) 5-5A viruses (FIG. 3) for PI treatment experiments. Additionally, we generated a first-passage stock of 2a J6/JFH1. We confirmed that virus stocks used for treatment were without NS3 protease mutations (FIGS. 5-9). We tested virus sensitivity to the most advanced PIs: telaprevir (VX-950), boceprevir (SCH503034), asunaprevir (BMS-650032), simeprevir (TMC435350), vaniprevir (MK-7009), faldaprevir (BI201335), and MK-5172. […] The median effective concentration (EC50) representing the efficacy of drugs against the treated viruses was calculated from the concentration-response curves (FIGS. 2, 4 and 10). For a given inhibitor, EC50 fold-differences relative to J6/JFH1 were calculated for each genotype recombinant and used to describe whether a recombinant was more sensitive (fold-difference <1) or resistant (fold-difference >1) than J6/JFH1.

[2] = system: 1a(TN) 5'UTR-NS5A recombinant virus; assay: High-throughput DAA treatment assay of infected Huh7.5 cells, 1a(TN)5-5A virus; type: cell-based, hepatitis C virus; conditions: for EC50 fold-difference from J6/JFH1: 1a(TN)5-5A virus, difference in sensitivity compared to J6/JFH1; for EC50 fold-difference relative to J6/JFH1, more sensitive: 1a(TN)5-5A virus more sensitive than J6/JFH1
Procedure: as §1, §2, §3

[3] = system: 3a(S52) 5'UTR-NS5A recombinant virus; assay: High-throughput DAA treatment assay of infected Huh7.5 cells, 3a(S52)5-5A virus; type: cell-based, hepatitis C virus; conditions: 3a(S52)5-5A virus more resistant (less sensitive) than J6/JFH1
Procedure: as §1, §2, §3

[4] = system: 4a(ED43) 5'UTR-NS5A recombinant virus; assay: High-throughput DAA treatment assay of infected Huh7.5 cells, 4a(ED43)5-5A virus; type: cell-based, hepatitis C virus; conditions: for EC50 fold-difference relative to J6/JFH1, more sensitive: 4a(ED43)5-5A virus more sensitive than J6/JFH1; for EC50 fold-difference relative to J6/JFH1, more resistant: 4a(ED43)5-5A virus more resistant than J6/JFH1
Procedure: as §1, §2, §3

[5] = system: 5a(SA13) 5'UTR-NS5A recombinant virus; assay: High-throughput DAA treatment assay of infected Huh7.5 cells, 5a(SA13)5-5A virus; type: cell-based, hepatitis C virus; conditions: for EC50 fold-difference from J6/JFH1: 5a(SA13)5-5A virus, difference in sensitivity compared to J6/JFH1; for EC50 fold-difference relative to J6/JFH1, more sensitive: 5a(SA13)5-5A virus more sensitive than J6/JFH1
Procedure: as §1, §2, §3

[6] = system: 6a(HK6a) 5'UTR-NS5A recombinant virus; assay: High-throughput DAA treatment assay of infected Huh7.5 cells, 6a(HK6a)5-5A virus; type: cell-based, hepatitis C virus; conditions: for EC50 fold-difference from J6/JFH1: 6a(HK6a)5-5A virus, difference in sensitivity compared to J6/JFH1; for EC50 fold-difference relative to J6/JFH1, more sensitive: 6a(HK6a)5-5A virus more sensitive than J6/JFH1
Procedure: as §1, §2, §3

[7] = system: HCV genotype 1-6 recombinant viruses; assay: High-throughput DAA treatment assay of infected Huh7.5 cells, whole panel of genotype 1-6 recombinant viruses; type: cell-based, hepatitis C virus; conditions: for Inhibition of genotype 1-6 recombinant viruses: infected Huh7.5 cells, concentration-response
Procedure: as §1, §2, §3

[8] = system: J6/JFH1 (HCV genotype 2a recombinant); assay: High-throughput DAA treatment assay of infected Huh7.5 cells, J6/JFH1 virus; type: cell-based; conditions: Hepatitis C virus, first-passage 2a J6/JFH1 stock, read-out: EC50 against J6/JFH1
Procedure: as §1, §2, §3

SMILES	EC50 fold-difference from J6/JFH1 [1]	EC50 fold-difference from J6/JFH1 [2]	EC50 fold-difference relative to J6/JFH1, more resistant [3]	EC50 fold-difference from J6/JFH1 ([4]; 4a(ED43)5-5A virus, difference in sensitivity compared to J6/JFH1)	EC50 fold-difference from J6/JFH1 [5]	EC50 fold-difference from J6/JFH1 [6]	Potency relative to the other tested DAAs ([7]; all genotype recombinant viruses)	Inhibition of genotype 1-6 recombinant viruses [7]	EC50 [8]	EC50 fold-difference relative to J6/JFH1, more sensitive [1]	EC50 fold-difference relative to J6/JFH1, more sensitive [2]	EC50 fold-difference relative to J6/JFH1, more sensitive [4]	EC50 fold-difference relative to J6/JFH1, more sensitive [5]	EC50 fold-difference relative to J6/JFH1, more sensitive [6]	EC50 fold-difference relative to J6/JFH1, more resistant [4]
C=C[C@@H]1C[C@]1(NC(=O)[C@@H]1C[C@@H]2CN1C(=O)[C@H](C(C)(C)C)NC(=O)O[C@@H]1C[C@H]1CCCCCc1nc3ccc(OC)cc3nc1O2)C(=O)NS(=O)(=O)C1CC1 [MK-5172]	less than 2 fold	less than 2 fold	~13 fold	less than 2 fold	less than 2 fold	less than 2 fold	the most potent PI with broad activity against HCV genotypes 1-6	concentration-dependently inhibited							
C=C[C@@H]1C[C@]1(NC(=O)[C@@H]1C[C@@H](Oc2ncc(OC)c3ccc(Cl)cc23)CN1C(=O)[C@@H](NC(=O)OC(C)(C)C)C(C)(C)C)C(=O)NS(=O)(=O)C1CC1 [asunaprevir]			~13 fold					concentration-dependently inhibited	159 nM	~5 fold	2-3 fold	~5 fold	2-3 fold	2-3 fold	
CC(C)(C)NC(=O)N[C@H](C(=O)N1C[C@H]2[C@@H]([C@H]1C(=O)NC(CC1CCC1)C(=O)C(N)=O)C2(C)C)C(C)(C)C (some centres unmarked) [boceprevir]			~2 fold						589 nM					~4 fold	~2 fold
COC(=O)N[C@H](C(=O)N1CCC[C@H]1c1nc(-c2ccc(-c3ccc(-c4c[nH]c([C@@H]5CCCN5C(=O)[C@@H](NC(=O)OC)C(C)C)n4)cc3)cc2)c[nH]1)C(C)C [daclatasvir]	< 3 fold	< 3 fold	~6 fold		< 3 fold	< 3 fold						~5 fold			
C=C[C@@H]1C[C@]1(NC(=O)[C@@H]1C[C@@H](Oc2cc(-c3csc(NC(=O)C(C)C)n3)nc3c(Br)c(OC)ccc23)CN1C(=O)[C@@H](NC(=O)OC1CCCC1)C(C)(C)C)C(=O)O [faldaprevir]			~17 fold					concentration-dependently inhibited		~12 fold	~4 fold	~44 fold	~10 fold	~4 fold	
COc1ccc2c(O[C@@H]3C[C@H]4C(=O)N[C@]5(C(=O)NS(=O)(=O)C6CC6)C[C@H]5/C=C\CCCCN(C)C(=O)[C@@H]4C3)cc(-c3nc(C(C)C)cs3)nc2c1C [simeprevir]		less than 2 fold	~27 fold		less than 2 fold	less than 2 fold		concentration-dependently inhibited	91 nM	~10 fold		~10 fold			
CCC[C@H](NC(=O)[C@@H]1[C@H]2CCC[C@H]2CN1C(=O)[C@@H](NC(=O)[C@@H](NC(=O)c1cnccn1)C1CCCCC1)C(C)(C)C)C(=O)C(=O)NC1CC1 [telaprevir]			~4 fold						493 nM					~4 fold	~4 fold
CC[C@@H]1C[C@]1(NC(=O)[C@@H]1C[C@@H]2CN1C(=O)[C@H](C(C)(C)C)NC(=O)OCC(C)(C)CCCCc1cccc3c1CN(C3)C(=O)O2)C(=O)NS(=O)(=O)C1CC1 [vaniprevir]			~22 fold					concentration-dependently inhibited	88 nM	3-6 fold	3-6 fold	~10 fold	3-6 fold	3-6 fold	
